16 compounds from paper PMC9364673 (Bioorganic Chemistry, 2022) can be followed below.

Molecules are shown by their SMILES. Like-named read-outs stand apart in the source and are kept apart here.

For orientation: IC50 means the concentration at which inhibition is half-maximal.

One assay deals with DPP-4 enzyme (Homo sapiens, UniProt P27487). Nature of the assay: biochemical.
For the next assay, the system named is type 2 diabetic rats. The assay can be described thus: In vivo antidiabetic effect of a single dose on OGTT in type 2 diabetic. The settings on record: oral doses equivalent to 10 mg/kg, NA: Not active. Also on record: species or system male Wistar albino rats.
The test system of a further assay is RAW264.7 cells. Nature of the assay: MTT cell viability assay on RAW264.7 macrophages. Type of assay: cell-based, murine. The settings on record: Mus musculus, RAW264.7, 24 h, read-out: IC50 (RAW264.7 cells viability). On the technique in general: Tetrazolium dyes change colour on reduction, which living cells bring about.
A short description of assay [1]: Antioxidant activity, DPPH scavenging method. The settings on record: read-out: IC50 (DPPH scavenging); DPPH 100 μM, 30 min, mean ± SD.
A further assay has as its system normal rats. Nature of the assay: In vivo screening of antihyperglycemic effect, oral tolerance test. Details: species or system male Wistar albino rats. To be noted: OGTT, oral administration, NA: Not active.
The test system of another assay is CRP. The assay can be described thus: ELISA of CRP release by LPS-stimulated RAW264.7 macrophages. Type of assay: cell-based, murine. To be noted: LPS (1 μg/mL) stimulated RAW264.7, compound at ¼ IC50, ELISA, compared to LPS. In general terms: An ELISA detects its analyte on a solid surface through an enzyme-linked reagent.
A further assay relates to IL-6. The assay can be described thus: ELISA of IL-6 release by LPS-stimulated RAW264.7 macrophages. The class given is cell-based, murine. The settings on record: LPS (1 μg/mL) stimulated RAW264.7, compound at ¼ IC50, ELISA, compared to LPS.

Chain of DPP-4 enzyme (P27487 whole entry): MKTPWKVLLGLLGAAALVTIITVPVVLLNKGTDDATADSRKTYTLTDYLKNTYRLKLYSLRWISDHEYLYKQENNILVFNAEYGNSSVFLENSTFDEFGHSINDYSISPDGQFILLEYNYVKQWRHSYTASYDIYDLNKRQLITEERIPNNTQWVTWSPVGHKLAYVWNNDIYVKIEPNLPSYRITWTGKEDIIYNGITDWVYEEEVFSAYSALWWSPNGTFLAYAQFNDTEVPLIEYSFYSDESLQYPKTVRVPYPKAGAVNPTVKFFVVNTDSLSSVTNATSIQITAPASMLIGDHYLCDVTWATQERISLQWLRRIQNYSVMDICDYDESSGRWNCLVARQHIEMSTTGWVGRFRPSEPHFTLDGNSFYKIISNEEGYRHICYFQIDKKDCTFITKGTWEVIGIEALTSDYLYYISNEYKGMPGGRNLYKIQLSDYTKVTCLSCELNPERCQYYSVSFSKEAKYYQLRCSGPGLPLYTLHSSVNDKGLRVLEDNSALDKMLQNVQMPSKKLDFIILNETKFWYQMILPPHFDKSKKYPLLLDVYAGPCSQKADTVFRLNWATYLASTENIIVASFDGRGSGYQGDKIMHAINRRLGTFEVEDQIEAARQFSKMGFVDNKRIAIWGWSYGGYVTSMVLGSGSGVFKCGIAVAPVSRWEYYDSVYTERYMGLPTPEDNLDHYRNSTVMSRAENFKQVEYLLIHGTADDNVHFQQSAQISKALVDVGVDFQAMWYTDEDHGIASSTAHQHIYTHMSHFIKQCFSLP

Take `Cc1ccc(NC(=S)NS(=O)(=O)C2=CNC3SC(=O)CN3C2=O)cc1` (stereo not shown) [Compound 4b, 3-(4-Methylphenyl)-1-[(2,5-dioxo-8,8a-dihydro-3H-thiazolo[3,2-a]pyrimidin-6-yl)sulfonyl]-thiourea]: the figures for the IC50 (against DPP-4 enzyme; in the assay with RAW264.7 cells; in assay [1]) were 0.063 ± 0.003 µM, 241 ± 69.2 µM and 65.9 ± 3.4 µM, respectively. Moreover, in the assay on type 2 diabetic rats, the “% Reduction in BGL compared to control” value stood at 36.59%.

At DPP-4 enzyme, `O=C(Nc1ccccc1)NS(=O)(=O)C1=CNC2SC(=O)CN2C1=O` (stereo not shown) [Compound 4c, 1-[(2,5-Dioxo-8,8a-dihydro-3H-thiazolo[3,2-a]pyrimidin-6-yl)sulfonyl]-3-phenyl-urea] yielded an IC50 of 0.418 ± 0.02 µM.

The compound `Cc1ccc(NC(=O)NS(=O)(=O)C2=CNC3SC(=O)CN3C2=O)cc1` (stereo not shown) [Compound 4d, 3-(4-Methylphenyl)-1-[(2,5-dioxo-8,8a-dihydro-3H-thiazolo[3,2-a]pyrimidin-6-yl)sulfonyl]-urea] returned an IC50 against DPP-4 enzyme of 1.32 ± 0.065 µM.

On DPP-4 enzyme, `O=C(O)CSc1ncc(S(=O)(=O)NC(=S)Nc2ccccc2)c(=O)[nH]1` [Compound 5a, 2-[[6-Oxo-5-(phenylcarbamothioylsulfamoyl)-1H-pyrimidin-2-yl]sulfanyl]acetic acid] showed an IC50 of 0.577 ± 0.028 µM.

As for `Cc1ccc(NC(=S)NS(=O)(=O)c2cnc(SCC(=O)O)[nH]c2=O)cc1` [Compound 5b, 2-[[5-(4-Methylphenylcarbamothioylsulfamoyl)-6-oxo-1H-pyrimidin-2-yl]sulfanyl]acetic acid], the “% Reduction in BGL compared to control” value with normal rats amounted to 15.89%. The compound also registered an IC50 against DPP-4 enzyme of 0.634 ± 0.031 µM.

`O=C(O)CSc1ncc(S(=O)(=O)NC(=O)Nc2ccccc2)c(=O)[nH]1` [Compound 5c, 2-[[6-Oxo-5-(phenylcarbamoylsulfamoyl)-1H-pyrimidin-2-yl]sulfanyl]acetic acid]: the IC50 against DPP-4 enzyme was 0.29 ± 0.018 µM.

Consider `NNc1ncc(S(=O)(=O)NC(=S)Nc2ccccc2)c(=O)[nH]1` [Compound 6a, 1-[(2-Hydrazino-6-oxo-1H-pyrimidin-5-yl)sulfonyl]-3-phenyl-thiourea], for which the “% Reduction in BGL compared to control” value with normal rats was found to be 17.70%; in the assay with type 2 diabetic rats it was 23.24%. The IC50 against DPP-4 enzyme came to 0.047 ± 0.002 µM; in the assay on RAW264.7 cells, 175 ± 24.7 µM; in assay [1], 139 ± 7.1 µM. Further, the “reduction of the release of CRP” value with CRP is listed as “about 75.5%”. The “decrease in IL-6 levels” value with IL-6 is “about 85.9%”.

For `Cc1ccc(NC(=S)NS(=O)(=O)c2cnc(NN)[nH]c2=O)cc1` [Compound 6b, 1-[(2-Hydrazino-6-oxo-1H-pyrimidin-5-yl)sulfonyl]-3-(4-methylphenyl)-thiourea], the IC50 at DPP-4 enzyme stood at 0.071 ± 0.004 µM; with RAW264.7 cells, 189 ± 26 µM; in assay [1], 123 ± 6.3 µM. For the same compound, the “% Reduction in BGL compared to control” value in the assay with type 2 diabetic rats was found to be 41.00%.

As for `NNc1ncc(S(=O)(=O)NC(=O)Nc2ccccc2)c(=O)[nH]1` [Compound 6c, 1-[(2-Hydrazino-6-oxo-1H-pyrimidin-5-yl)sulfonyl]-3-phenyl-urea], the “% Reduction in BGL compared to control” value with normal rats turned out to be 17.36%. Further, on DPP-4 enzyme, half-maximal inhibition (IC50) required 0.264 ± 0.013 µM.

Take `O=c1c(S(=O)(=O)NC(=S)Nc2ccccc2)cnc2[nH]ncn12` [Compound 7a, 1-[(5-oxo-1H-[1], [2], [4]triazolo[4,3-a]pyrimidin-6-yl)sulfonyl]-3-phenyl-thiourea]: in the assay on normal rats, the “% Reduction in BGL compared to control” value worked out at 17.55%. On DPP-4 enzyme (read-out: DPP-4 IC50, in vitro, 0.01 to 10 µM, mean ± SD), the IC50 amounted to 0.153 ± 0.008 µM.

In the case of `O=c1[nH]c(N/N=C/c2ccccc2)ncc1S(=O)(=O)NC(=S)Nc1ccccc1` [Compound 8a, 1-[[2-[(2E)-2-benzylidenehydrazino]-6-oxo-1H-pyrimidin-5-yl]sulfonyl]-3-phenyl-thiourea], in the assay on normal rats, the “% Reduction in BGL compared to control” value is 16.88%. The same compound had an IC50 against DPP-4 enzyme of 0.104 ± 0.005 µM.

On to `Cc1ccc(NC(=S)NS(=O)(=O)c2cnc(N/N=C/c3ccccc3)[nH]c2=O)cc1` [Compound 8b, 1-[[2-[(2E)-2-benzylidenehydrazino]-6-oxo-1H-pyrimidin-5-yl]sulfonyl]-3-(4-methylphenyl)-thiourea], for which the IC50 against DPP-4 enzyme was found to be 0.075 ± 0.003 µM; with RAW264.7 cells, 155 ± 24.2 µM; in assay [1], 60.8 ± 3.1 µM. For the same compound, the “% Reduction in BGL compared to control” value in the assay with type 2 diabetic rats amounted to 23.94%. Also, the “reduction of the release of CRP” value with CRP is approximately 82.6%. The “decrease in IL-6 levels” value in the assay on IL-6 was approximately 80.2%.

At DPP-4 enzyme, `O=C(Nc1ccccc1)NS(=O)(=O)c1cnc(N/N=C/c2ccccc2)[nH]c1=O` [Compound 8c, 1-[[2-[(2E)-2-benzylidenehydrazino]-6-oxo-1H-pyrimidin-5-yl]sulfonyl]-3-phenyl-urea] gave an IC50 of 0.468 ± 0.023 µM.

Consider `Cc1ccc(S(=O)(=O)NC(=O)NN2CC3CCCC3C2)cc1` (stereo not shown) [Diamicron, reference compound], for which the “% Reduction in BGL compared to control” value in the assay on normal rats was found to be 15.86%.

For the compound `CC#CCn1c(N2CCC[C@@H](N)C2)nc2c1c(=O)n(Cc1nc(C)c3ccccc3n1)c(=O)n2C` [Linagliptin, linagliptin, reference compound], the “% Reduction in BGL compared to control” value in the assay on type 2 diabetic rats amounted to 36.42%.

For `Cc1c(C)c2c(c(C)c1O)CCC(C)(C(=O)O)O2` (stereo not shown) [Trolox, reference compound], the IC50 in assay [1] is 55.2 ± 2.8 µM.
